Legend:
skin papillomas = assay: DMBA/TPA-induced skin papillomas in FVB mice; format: in vivo
Description: This initiation-promotion protocol leads to papillomas by wk 10, and in a fraction of the mice to SCC by wk 20. […] Criteria similar to those used for human papilloma classification were applied to assess disease progression: hyperplasia→papilloma (Pap 1-3)→microinvasive SCC (M1-3)→invasive SCC. On wk 20, the study was terminated.

[1] = format: in vivo, mice; details: 55° C. hot plate, 30 min after single i.p. dose; 100 mg/kg, PI-PEG 1,600 mg/kg; control 1.91 ± 0.46
[2] = Inhalation versus oral delivery of PS; format: in vivo, mice
[3] = PK study of topical PSG versus oral PS; details: mouse, skin, topical or ocular
[4] = Drug levels in papillomas (HPLC); details: equal dose of PS orally
β-catenin signaling = assay: β-catenin transcriptional activity (TOPflash) in HEK293T cells; format: cell-based; details: 5 μM each; control 1.23±0.11
U87 cells = assay: 24-h growth inhibition of U87 glioblastoma cells; format: cell-based; details: Homo sapiens, U-87 MG; U87, 24 h
Protocol: U87 cells were treated with sulindac and ibuprofen as well as with the compounds. U87 is a human primary glioblastoma cell line, formally known as U-87 MG. This cell line has epithelial morphology, and is one of the most frequently used glioblastoma cell lines.

CCOP(=O)(OCC)OCCCCOC(=O)CC1=C(C)/C(=C/c2ccc([S+](C)[O-])cc2)c2ccc(F)cc21 (stereo not drawn) [PS 118]
papilloma multiplicity, oral administration (skin papillomas; oral): failed to reduce papilloma multiplicity | reduction of tumor burden (average tumor volume/mouse) (skin papillomas; topical): ~90% | thickness of the epidermis (skin papillomas; topical): partial effect | reduction of tumor number (papillomas/mouse) (skin papillomas; topical application): merely stabilized disease progression | latency values (mean±SD) [1]: 4.55 ± 1.00 s | PS levels in plasma ([2]; inhalation and oral): undetectable | level of intact PS in lungs ([2]; inhalational 6.5 mg/kg): > 20 nmol/g | total drug levels in lungs, inhalation vs oral ([2]; mouse, in vivo, po): significantly higher compared to those by oral administration | level of intact PS in lungs ([2]; oral 150 mg/kg): < 2 nmol/g | AUC(0-t) [3]: 684 µM·h | Cmax [3]: 36.1 µM | Tmax [3]: 2 h | level of PS in papillomas [4]: 0.3 ± 0.2 nmol/g | luciferase/renilla activity (β-catenin signaling): 0.76±0.03 | IC50 (U87 cells): 114 µM
